Tests used:
[1] = Total indole concentrations over range of dissolved oxygen concentrations (light box storage); assay type: physicochemical; conditions: continuous light ~2200 lux, 28° C., pH 2.8-3.0
Protocol: (§1) Synthetic R,R-monatin containing approximately 95.4% R,R-monatin monopotassium salt (dry basis) was obtained from CSIR (Modderfontein, South Africa). About 100 mg/L of this monatin was placed in a buffered solution at a pH of about 2.8-3.0 comprising 9 mM citric acid-trisodium citrate in high purity water and preserved with about 150 mg/L sodium benzoate. Dissolved O2 levels were either increased by bubbling compressed air or reduced by bubbling N2 (99.9% purity) through these samples until the target O2 concentrations were achieved. Dissolved O2 levels were determined at 20° C. using a FOXY fluorescence quenching O2 analyzer from Ocean Optics (Dunedin, Fla.). Samples were stored in clear, glass ampules (˜10 mL) after O2 adjustment and heat-sealed to create an air-tight enclosure. The samples were then exposed to light continuously (24 hours per day) in a light box (˜2200 lux light intensity) configured with a rotating carousel to provide even illumination. The source of light was provided by ultra-violet (UV) light wavelength transmitting bulbs and standard fluorescent bulbs. The heat produced by the lights warmed the samples to a temperature of about 28° C. Duplicate samples of each treatment were analyzed weekly for total indole concentrations via the following method.
(§2) Total indole (monatin and its intramolecular rearrangement products, monatin lactone and monatin lactam) concentrations were quantified by reversed phase HPLC at 40° C. using an Agilent Zorbax Eclipse C18 column with UV detection at 280 nm by PDA. The compounds were eluted by a gradient mobile phase consisting of (A) 1:1 methanol and acetonitrile (v:v) with 0.3% formic acid and 10 mM ammonium formate and (B) 0.3% formic acid in water with 10 mM ammonium formate. The integrated peak areas for the three (3) compounds were expressed in terms of monatin concentration (mg/L) based on a standard curve prepared for monatin. Thus, the extinction coefficient for monatin was applied to estimate concentrations of monatin lactone and monatin lactam since standards for these compounds were unavailable.

[2] = Total indole concentrations under various light, O2 and EMIQ conditions; assay type: physicochemical
Protocol: as §1, with “35” for “100”, “benzoate. To some samples 200 ppm SANMELIN™ AO-3000 enzymatically modified isoquercitrin (EMIQ) (San-Ei Gen F.F.I.—Osaka, Japan) was added.” for “benzoate.”, “then either stored in the dark, or” for “then”
as §2

NC(CC(O)(Cc1c[nH]c2ccccc12)C(=O)O)C(=O)O (centres unmarked) [R,R-monatin, 2-hydroxy-2-(indol-3-ylmethyl)-4-aminoglutaric acid]
Total Indole Concentration ([1]; 0.4 mg/L O2, 0 Days): 104.0 mg/L
Total Indole Concentration ([1]; 0.4 mg/L O2, 7 Days): 98.7 mg/L
Total Indole Concentration ([1]; 0.4 mg/L O2, 14 Days): 102.9 mg/L
Total Indole Concentration ([1]; 0.4 mg/L O2, 21 Days): 97.5 mg/L
Total Indole Concentration ([1]; 0.4 mg/L O2, 28 Days): 96.2 mg/L
Total Indole Concentration ([1]; 1.5 mg/L O2, 0 Days): 104.0 mg/L
Total Indole Concentration ([1]; 1.5 mg/L O2, 7 Days): 97.1 mg/L
Total Indole Concentration ([1]; 1.5 mg/L O2, 14 Days): 90.6 mg/L
Total Indole Concentration ([1]; 1.5 mg/L O2, 21 Days): 93.3 mg/L
Total Indole Concentration ([1]; 1.5 mg/L O2, 28 Days): 76.0 mg/L
Total Indole Concentration ([1]; 4.0 mg/L O2, 0 Days): 104.0 mg/L
Total Indole Concentration ([1]; 4.0 mg/L O2, 7 Days): 94.6 mg/L
Total Indole Concentration ([1]; 4.0 mg/L O2, 14 Days): 71.3 mg/L
Total Indole Concentration ([1]; 4.0 mg/L O2, 21 Days): 58.0 mg/L
Total Indole Concentration ([1]; 4.0 mg/L O2, 28 Days): 14.6 mg/L
Total Indole Concentration ([1]; 6.5 mg/L O2, 0 Days): 104.0 mg/L
Total Indole Concentration ([1]; 6.5 mg/L O2, 7 Days): 97.0 mg/L
Total Indole Concentration ([1]; 6.5 mg/L O2, 14 Days): 75.7 mg/L
Total Indole Concentration ([1]; 6.5 mg/L O2, 21 Days): 54.7 mg/L
Total Indole Concentration ([1]; 6.5 mg/L O2, 28 Days): 0.0 mg/L
Total Indole Concentration ([1]; 8.3 mg/L O2, 0 Days): 104.0 mg/L
Total Indole Concentration ([1]; 8.3 mg/L O2, 7 Days): 89.6 mg/L
Total Indole Concentration ([1]; 8.3 mg/L O2, 14 Days): 49.9 mg/L
Total Indole Concentration ([1]; 8.3 mg/L O2, 21 Days): 21.3 mg/L
Total Indole Concentration ([1]; 8.3 mg/L O2, 28 Days): 0.0 mg/L
Total Indole Concentration ([2]; Light Exposure NO, O2 8.3 mg/L, EMIQ 0 ppm, 0 Days): 36.3 mg/L
Total Indole Concentration ([2]; Light Exposure NO, O2 8.3 mg/L, EMIQ 0 ppm, 7 Days): 36.5 mg/L
Total Indole Concentration ([2]; Light Exposure NO, O2 8.3 mg/L, EMIQ 0 ppm, 14 Days): 37.0 mg/L
Total Indole Concentration ([2]; Light Exposure NO, O2 8.3 mg/L, EMIQ 0 ppm, 21 Days): 41.0 mg/L
Total Indole Concentration ([2]; Light Exposure NO, O2 8.3 mg/L, EMIQ 0 ppm, 28 Days): 37.5 mg/L
Total Indole Concentration ([2]; Light Exposure NO, O2 8.3 mg/L, EMIQ 200 ppm, 0 Days): 35.5 mg/L
Total Indole Concentration ([2]; Light Exposure NO, O2 8.3 mg/L, EMIQ 200 ppm, 7 Days): 35.3 mg/L
Total Indole Concentration ([2]; Light Exposure NO, O2 8.3 mg/L, EMIQ 200 ppm, 14 Days): 43.3 mg/L
Total Indole Concentration ([2]; Light Exposure NO, O2 8.3 mg/L, EMIQ 200 ppm, 21 Days): 36.2 mg/L
Total Indole Concentration ([2]; Light Exposure NO, O2 8.3 mg/L, EMIQ 200 ppm, 28 Days): 33.5 mg/L
Total Indole Concentration ([2]; Light Exposure NO, O2 <0.5 mg/L, EMIQ 0 ppm, 0 Days): 34.7 mg/L
Total Indole Concentration ([2]; Light Exposure NO, O2 <0.5 mg/L, EMIQ 0 ppm, 7 Days): 32.8 mg/L
Total Indole Concentration ([2]; Light Exposure NO, O2 <0.5 mg/L, EMIQ 0 ppm, 14 Days): 34.4 mg/L
Total Indole Concentration ([2]; Light Exposure NO, O2 <0.5 mg/L, EMIQ 0 ppm, 21 Days): 32.8 mg/L
Total Indole Concentration ([2]; Light Exposure NO, O2 <0.5 mg/L, EMIQ 0 ppm, 28 Days): 35.2 mg/L
Total Indole Concentration ([2]; Light Exposure NO, O2 <0.5 mg/L, EMIQ 200 ppm, 0 Days): 34.7 mg/L
Total Indole Concentration ([2]; Light Exposure NO, O2 <0.5 mg/L, EMIQ 200 ppm, 7 Days): 32.8 mg/L
Total Indole Concentration ([2]; Light Exposure NO, O2 <0.5 mg/L, EMIQ 200 ppm, 14 Days): 34.4 mg/L
Total Indole Concentration ([2]; Light Exposure NO, O2 <0.5 mg/L, EMIQ 200 ppm, 21 Days): 32.8 mg/L
Total Indole Concentration ([2]; Light Exposure NO, O2 <0.5 mg/L, EMIQ 200 ppm, 28 Days): 35.2 mg/L
Total Indole Concentration ([2]; Light Exposure YES, O2 8.3 mg/L, EMIQ 0 ppm, 0 Days): 36.3 mg/L
Total Indole Concentration ([2]; Light Exposure YES, O2 8.3 mg/L, EMIQ 0 ppm, 7 Days): 15.3 mg/L
Total Indole Concentration ([2]; Light Exposure YES, O2 8.3 mg/L, EMIQ 0 ppm, 14 Days): 4.5 mg/L
Total Indole Concentration ([2]; Light Exposure YES, O2 8.3 mg/L, EMIQ 0 ppm, 21 Days): 0.0 mg/L
Total Indole Concentration ([2]; Light Exposure YES, O2 8.3 mg/L, EMIQ 0 ppm, 28 Days): 0.0 mg/L
Total Indole Concentration ([2]; Light Exposure YES, O2 8.3 mg/L, EMIQ 200 ppm, 0 Days): 34.7 mg/L
Total Indole Concentration ([2]; Light Exposure YES, O2 8.3 mg/L, EMIQ 200 ppm, 7 Days): 32.7 mg/L
Total Indole Concentration ([2]; Light Exposure YES, O2 8.3 mg/L, EMIQ 200 ppm, 14 Days): 28.4 mg/L
Total Indole Concentration ([2]; Light Exposure YES, O2 8.3 mg/L, EMIQ 200 ppm, 21 Days): 26.0 mg/L
Total Indole Concentration ([2]; Light Exposure YES, O2 8.3 mg/L, EMIQ 200 ppm, 28 Days): 22.5 mg/L
Total Indole Concentration ([2]; Light Exposure YES, O2 <0.5 mg/L, EMIQ 0 ppm, 0 Days): 36.3 mg/L
Total Indole Concentration ([2]; Light Exposure YES, O2 <0.5 mg/L, EMIQ 0 ppm, 7 Days): 35.9 mg/L
Total Indole Concentration ([2]; Light Exposure YES, O2 <0.5 mg/L, EMIQ 0 ppm, 14 Days): 36.0 mg/L
Total Indole Concentration ([2]; Light Exposure YES, O2 <0.5 mg/L, EMIQ 0 ppm, 21 Days): 38.8 mg/L
Total Indole Concentration ([2]; Light Exposure YES, O2 <0.5 mg/L, EMIQ 0 ppm, 28 Days): 34.6 mg/L
Total Indole Concentration ([2]; Light Exposure YES, O2 <0.5 mg/L, EMIQ 200 ppm, 0 Days): 34.7 mg/L
Total Indole Concentration ([2]; Light Exposure YES, O2 <0.5 mg/L, EMIQ 200 ppm, 7 Days): 35.8 mg/L
Total Indole Concentration ([2]; Light Exposure YES, O2 <0.5 mg/L, EMIQ 200 ppm, 14 Days): 33.9 mg/L
Total Indole Concentration ([2]; Light Exposure YES, O2 <0.5 mg/L, EMIQ 200 ppm, 21 Days): 35.1 mg/L
Total Indole Concentration ([2]; Light Exposure YES, O2 <0.5 mg/L, EMIQ 200 ppm, 28 Days): 29.3 mg/L

Source: patent publication US20120076899A1, “SHELF STABLE MONATIN SWEETENED BEVERAGE” (Cargill, Incorporated, priority 2009, published 2012)
